Results published in the NIST ThermoML archive (doi:10.1021/je8001442).

Assay: excess molar enthalpy (molar enthalpy of mixing); xn = mol fraction of the nth substance listed
Settings: Fluid (supercritical or subcritical phases), Flow calorimetry

CC(C)OC(C)C [diisopropyl ether] + O=C=O
excess molar enthalpy [kcal/mol]
Settings	298.15 K	303.15 K	308.15 K
5000 kPa, x2 = 0.1255	-0.279	-0.251	-0.293
5000 kPa, x2 = 0.2326	-0.527	-0.526	-0.53
5000 kPa, x2 = 0.3249	-0.734	-0.741	-0.745
5000 kPa, x2 = 0.4054	-0.913	-0.922	-0.924
5000 kPa, x2 = 0.4762	-1.07	-1.08	-1.09
5000 kPa, x2 = 0.5389	-1.2	-1.22	-1.22
5000 kPa, x2 = 0.5949	-1.33	-1.35	-1.34
5000 kPa, x2 = 0.6452	-1.45	-1.46	-1.45
5000 kPa, x2 = 0.6906	-1.55	-1.55	-1.55
5000 kPa, x2 = 0.7317	-1.62	-1.64	–
5000 kPa, x2 = 0.7692	-1.71	–	–
5000 kPa, x2 = 0.8036	-1.79	–	–
5000 kPa, x2 = 0.8351	-1.85	–	–
5500 kPa, x2 = 0.1263	-0.277	-0.278	-0.275
5500 kPa, x2 = 0.2338	-0.496	-0.505	-0.525
5500 kPa, x2 = 0.3265	-0.682	-0.715	-0.709
5500 kPa, x2 = 0.4071	-0.861	-0.881	-0.891
5500 kPa, x2 = 0.478	-0.991	-1.03	-1.04
5500 kPa, x2 = 0.5407	-1.13	-1.16	-1.18
5500 kPa, x2 = 0.5966	-1.25	-1.28	-1.29
5500 kPa, x2 = 0.6468	-1.34	-1.38	-1.4
5500 kPa, x2 = 0.6921	-1.45	-1.48	-1.49
5500 kPa, x2 = 0.7331	-1.52	-1.56	-1.57
5500 kPa, x2 = 0.7705	-1.61	-1.64	–
5500 kPa, x2 = 0.8047	-1.67	-1.69	–
5500 kPa, x2 = 0.8361	-1.74	–	–
5500 kPa, x2 = 0.865	-1.78	–	–
5500 kPa, x2 = 0.8918	-1.82	–	–
5500 kPa, x2 = 0.9019	-1.83	–	–
6000 kPa, x2 = 0.127	-0.232	-0.255	-0.277
6000 kPa, x2 = 0.235	-0.442	-0.479	-0.494
6000 kPa, x2 = 0.3279	-0.621	-0.675	-0.693
6000 kPa, x2 = 0.4087	-0.761	-0.839	-0.853
6000 kPa, x2 = 0.4796	-0.89	-0.973	-1.02
6000 kPa, x2 = 0.5423	-1.01	-1.09	-1.12
6000 kPa, x2 = 0.5982	-1.09	-1.21	-1.22
6000 kPa, x2 = 0.6483	-1.19	-1.32	-1.34
6000 kPa, x2 = 0.6934	-1.27	-1.4	-1.42
6000 kPa, x2 = 0.7344	-1.33	-1.48	-1.49
6000 kPa, x2 = 0.7716	-1.4	-1.54	-1.56
6000 kPa, x2 = 0.8057	-1.48	-1.6	-1.61
6000 kPa, x2 = 0.8248	–	–	-1.64
6000 kPa, x2 = 0.837	-1.52	-1.66	–
6000 kPa, x2 = 0.8658	-1.59	-1.7	–
6000 kPa, x2 = 0.8924	-1.63	-1.71	–
6000 kPa, x2 = 0.9171	-1.65	–	–
6000 kPa, x2 = 0.931	-1.63	–	–
6000 kPa, x2 = 0.94	-1.67	–	–
6000 kPa, x2 = 0.9614	-1.64	–	–
6000 kPa, x2 = 0.9813	-1.48	–	–
6500 kPa, x2 = 0.1277	–	–	-0.254
6500 kPa, x2 = 0.2361	–	–	-0.464
6500 kPa, x2 = 0.3292	–	–	-0.638
6500 kPa, x2 = 0.4101	–	–	-0.787
6500 kPa, x2 = 0.4811	–	–	-0.92
6500 kPa, x2 = 0.5438	–	–	-1.04
6500 kPa, x2 = 0.5996	–	–	-1.14
6500 kPa, x2 = 0.6496	–	–	-1.24
6500 kPa, x2 = 0.6947	–	–	-1.33
6500 kPa, x2 = 0.7355	–	–	-1.39
6500 kPa, x2 = 0.7727	–	–	-1.45
6500 kPa, x2 = 0.8066	–	–	-1.5
6500 kPa, x2 = 0.8378	–	–	-1.56
6500 kPa, x2 = 0.8665	–	–	-1.6
7000 kPa, x2 = 0.1283	–	–	-0.232
7000 kPa, x2 = 0.237	–	–	-0.421
7000 kPa, x2 = 0.3304	–	–	-0.587
7000 kPa, x2 = 0.4114	–	–	-0.728
7000 kPa, x2 = 0.4824	–	–	-0.857
7000 kPa, x2 = 0.5451	–	–	-0.95
7000 kPa, x2 = 0.6009	–	–	-1.05
7000 kPa, x2 = 0.6509	–	–	-1.13
7000 kPa, x2 = 0.6958	–	–	-1.21
7000 kPa, x2 = 0.7366	–	–	-1.26
7000 kPa, x2 = 0.7736	–	–	-1.33
7000 kPa, x2 = 0.8075	–	–	-1.38
7000 kPa, x2 = 0.8385	–	–	-1.42
7000 kPa, x2 = 0.8671	–	–	-1.44
7000 kPa, x2 = 0.8935	–	–	-1.46
7000 kPa, x2 = 0.9179	–	–	-1.47
7500 kPa, x2 = 0.1289	–	–	-0.2
7500 kPa, x2 = 0.238	–	–	-0.356
7500 kPa, x2 = 0.3315	–	–	-0.488
7500 kPa, x2 = 0.4127	–	–	-0.625
7500 kPa, x2 = 0.4837	–	–	-0.727
7500 kPa, x2 = 0.5464	–	–	-0.819
7500 kPa, x2 = 0.6021	–	–	-0.904
7500 kPa, x2 = 0.652	–	–	-0.973
7500 kPa, x2 = 0.6969	–	–	-1.04
7500 kPa, x2 = 0.7376	–	–	-1.1
7500 kPa, x2 = 0.7745	–	–	-1.15
7500 kPa, x2 = 0.8083	–	–	-1.19
7500 kPa, x2 = 0.8392	–	–	-1.24
7500 kPa, x2 = 0.8677	–	–	-1.25
7500 kPa, x2 = 0.894	–	–	-1.28
7500 kPa, x2 = 0.9183	–	–	-1.26
7500 kPa, x2 = 0.9409	–	–	-1.24
7500 kPa, x2 = 0.962	–	–	-1.17
